Measured values: PubChem BioAssay AID330 (DTP/NCI, 2004)
Several values for one entry are separate records, joined by “and”; a condition that tells them apart may be missing. Equal values may be shown once. Inconclusive results and toxic doses are left out. Square brackets hold non-standard residues; d marks the D form. Peptide text beside a SMILES is read from it. * marks the point of attachment. ξ: configuration not given here. Ac5c = NC1(C(=O)O)CCCC1; Cbz = O=C(OCc1ccccc1)*; ξI = CCC(C)C(N)C(=O)O

System: P388 leukemia ip, CD2F1 mice, survival T/C
Experiment: NCI In Vivo Anticancer Drug Screen. Data for tumor model P388 Leukemia (intraperitoneal) in CD2F1 (CDF1) mice
Conditions: endpoint: median survival time, higher = longer survival
In short: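 Mice carrying the transplanted tumor received test compound or vehicle. Survival was recorded in each group, and the value is the treated-group measurement divided by that of the vehicle-treated control group.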

[1] = dose: 50.0 mg/kg/injection, schedule: Q01DX009 (ip), vehicle: Klucel (hydroxypropylcellulose) (HPC)
[2] = dose: 100.0 mg/kg/injection, schedule: Q01DX009 (ip), vehicle: Klucel (hydroxypropylcellulose) (HPC)
[3] = dose: 200.0 mg/kg/injection, schedule: Q01DX009 (ip), vehicle: Klucel (hydroxypropylcellulose) (HPC)
[4] = dose: 100.0 mg/kg/injection, schedule: Q01DX009 (ip), vehicle: saline with Tween-80
[5] = dose: 200.0 mg/kg/injection, schedule: Q01DX009 (ip), vehicle: saline with Tween-80
[6] = dose: 400.0 mg/kg/injection, schedule: Q01DX009 (ip), vehicle: saline with Tween-80
[7] = dose: 50.0 mg/kg/injection, schedule: Q01DX005 (ip), vehicle: Klucel (hydroxypropylcellulose) (HPC)
[8] = dose: 100.0 mg/kg/injection, schedule: Q01DX005 (ip), vehicle: Klucel (hydroxypropylcellulose) (HPC)
[9] = dose: 60.0 mg/kg/injection, schedule: Q01DX005 (ip), vehicle: saline with Tween-80
[10] = dose: 120.0 mg/kg/injection, schedule: Q01DX005 (ip), vehicle: saline with Tween-80
[11] = dose: 240.0 mg/kg/injection, schedule: Q01DX005 (ip), vehicle: saline with Tween-80
[12] = dose: 100.0 mg/kg/injection, schedule: Q01DX001 (ip), vehicle: saline
[13] = dose: 200.0 mg/kg/injection, schedule: Q01DX001 (ip), vehicle: saline
[14] = dose: 50.0 mg/kg/injection, schedule: Q01DX005 (ip), vehicle: saline with Tween-80
[15] = dose: 60.0 mg/kg/injection, schedule: Q01DX005 (ip), vehicle: saline
[16] = dose: 120.0 mg/kg/injection, schedule: Q01DX005 (ip), vehicle: saline
[17] = dose: 240.0 mg/kg/injection, schedule: Q01DX005 (ip), vehicle: saline
[18] = dose: 200.0 mg/kg/injection, schedule: Q01DX005 (ip), vehicle: Klucel (hydroxypropylcellulose) (HPC)

COC(=O)c1cc(NS(=O)(=O)N(C)C)cc(C(=O)OC)c1
T/C [1]: 103 % of control
T/C [2]: 103 % of control
T/C [3]: 103 % of control

NC1(C(=O)NCC(=O)O)CCCC1 (H-[Ac5c]-Gly-OH)
T/C (dose: 50.0 mg/kg/injection, schedule: Q04DX003 (ip), vehicle: Klucel (hydroxypropylcellulose) (HPC)): 99 % of control
T/C (dose: 100.0 mg/kg/injection, schedule: Q04DX003 (ip), vehicle: Klucel (hydroxypropylcellulose) (HPC)): 99 % of control
T/C (dose: 200.0 mg/kg/injection, schedule: Q04DX003 (ip), vehicle: Klucel (hydroxypropylcellulose) (HPC)): 97 % of control
T/C (dose: 400.0 mg/kg/injection, schedule: Q04DX003 (ip), vehicle: Klucel (hydroxypropylcellulose) (HPC)): 112 % of control

O=C/C=C/n1ccccc1=S
T/C (dose: 10.0 mg/kg/injection, schedule: Q01DX001 (ip), vehicle: Klucel (hydroxypropylcellulose) (HPC)): 109 % of control
T/C (dose: 20.0 mg/kg/injection, schedule: Q01DX001 (ip), vehicle: Klucel (hydroxypropylcellulose) (HPC)): 102 % of control

CCOC(=O)c1c(C)c(C(=O)OCC)n(C)c1C=O
T/C [4]: 97 % of control
T/C [5]: 97 % of control
T/C [6]: 96 % of control

CN(/N=C/c1ccc2c(c1)OCO2)c1ccc([N+](=O)[O-])cc1
T/C [7]: 89 % of control
T/C [8]: 89 % of control

COc1ccc2c(c1)CCC1=C2P(C)(=S)CC1 (configuration not stated)
T/C [1]: 101 % of control
T/C [2]: 104 % of control
T/C [3]: 106 % of control

Oc1cc(Br)ccc1/C=N/Nc1ccccn1
T/C [9]: 90 % of control
T/C [10]: 96 % of control
T/C [11]: 101 % of control

O=c1oc(-c2ccccc2Br)ns1
T/C [2]: 107 % of control
T/C [3]: 97 % of control

Nc1nc(=O)n(C2CC(O)C(O)C(CO)O2)cc1F (configuration not stated)
T/C [4]: 109 % of control
T/C [5]: 97 % of control
T/C [6]: 93 % of control

ONC1CC(NO)CC(NO)C1 (configuration not stated)
T/C [12]: 117 % of control
T/C [13]: 110 % of control

CC(C)c1cccc(C(C)C)c1NC(=O)Nc1ccc(Cl)cc1Cl
T/C [9]: 114 % of control
T/C [10]: 104 % of control
T/C [11]: 116 % of control

CC1=C(C)CN(CCc2c[nH]c3ccccc23)C(C#N)C1 (configuration not stated)
T/C (dose: 12.5 mg/kg/injection, schedule: Q01DX005 (ip), vehicle: saline with Tween-80): 102 % of control
T/C (dose: 25.0 mg/kg/injection, schedule: Q01DX005 (ip), vehicle: saline with Tween-80): 108 % of control
T/C [14]: 102 % of control and 117 % of control

CC(=O)NN=Nc1ccc(C)cc1
T/C [7]: 105 % of control
T/C [8]: 102 % of control

COc1cc2c(cc1OC)C(NC=O)CCC2 (configuration not stated)
T/C (dose: 25.0 mg/kg/injection, schedule: Q01DX009 (ip), vehicle: other): 101 % of control
T/C (dose: 50.0 mg/kg/injection, schedule: Q01DX009 (ip), vehicle: other): 104 % of control
T/C (dose: 100.0 mg/kg/injection, schedule: Q01DX009 (ip), vehicle: other): 100 % of control
T/C (dose: 200.0 mg/kg/injection, schedule: Q01DX009 (ip), vehicle: other): 101 % of control
T/C (dose: 400.0 mg/kg/injection, schedule: Q01DX009 (ip), vehicle: other): 86 % of control

CSc1cccc(NC(=O)Oc2cccnc2)c1
T/C [1]: 103 % of control
T/C [2]: 100 % of control
T/C [3]: 100 % of control

CSc1ccc(NC(=S)SCc2ccc3c(c2)OCO3)cc1Cl
T/C (dose: 50.0 mg/kg/injection, schedule: Q01DX009 (ip), vehicle: suspension in saline): 105 % of control
T/C (dose: 100.0 mg/kg/injection, schedule: Q01DX009 (ip), vehicle: suspension in saline): 101 % of control
T/C (dose: 200.0 mg/kg/injection, schedule: Q01DX009 (ip), vehicle: suspension in saline): 98 % of control

CC(Cl)(c1ccccc1)C1OCCO1 (configuration not stated)
T/C [9]: 100 % of control
T/C [10]: 101 % of control
T/C [11]: 102 % of control

CCC(O)C#C[Si](C)(C)C (configuration not stated)
T/C [15]: 97 % of control
T/C [16]: 100 % of control
T/C [17]: 103 % of control

CSC(=S)c1ccc(NSc2ccccc2[N+](=O)[O-])cc1
T/C (dose: 100.0 mg/kg/injection, schedule: Q04DX003 (ip), vehicle: saline): 113 % of control
T/C (dose: 200.0 mg/kg/injection, schedule: Q04DX003 (ip), vehicle: saline): 110 % of control
T/C (dose: 400.0 mg/kg/injection, schedule: Q04DX003 (ip), vehicle: saline): 93 % of control

CCC(C)C(NC(=O)OCc1ccccc1)C(=O)NCC(=O)O (configuration not stated) (Cbz-[ξI]-Gly-OH)
T/C [7]: 97 % of control
T/C [8]: 97 % of control
T/C [18]: 90 % of control

N#Cc1c(-c2ccccc2)c(C#N)c(=O)n(N)c1N
T/C [7]: 91 % of control and 93 % of control
T/C [8]: 86 % of control
T/C [18]: 86 % of control

NC(CSC(c1ccccc1)(c1ccccc1)c1ccccc1)C(=O)NCC(=O)O (configuration not stated)
T/C (dose: 600.0 mg/kg/injection, schedule: Q01DX009 (ip), vehicle: saline with Tween-80): 122 % of control

CC(=O)OC(C)C(O)C(O)C(/C=C/C1CC=CC(=O)O1)OC(C)=O (configuration not stated)
T/C (dose: 8.25 mg/kg/injection, schedule: Q01DX005 (ip), vehicle: Klucel (hydroxypropylcellulose) (HPC)): 108 % of control
T/C (dose: 16.5 mg/kg/injection, schedule: Q01DX005 (ip), vehicle: Klucel (hydroxypropylcellulose) (HPC)): 104 % of control
T/C (dose: 33.0 mg/kg/injection, schedule: Q01DX005 (ip), vehicle: Klucel (hydroxypropylcellulose) (HPC)): 104 % of control
T/C (dose: 66.0 mg/kg/injection, schedule: Q01DX005 (ip), vehicle: Klucel (hydroxypropylcellulose) (HPC)): 95 % of control

CCCC(=O)NC1CCc2cc(OC)c(OC)c(OC)c2-c2ccc(OC)c(=O)cc21 (configuration not stated)
T/C (dose: 0.62 mg/kg/injection, schedule: Q01DX009 (ip), vehicle: Klucel (hydroxypropylcellulose) (HPC)): 152 % of control
T/C (dose: 0.63 mg/kg/injection, schedule: Q01DX009 (ip), vehicle: Klucel (hydroxypropylcellulose) (HPC)): 178 % of control
T/C (dose: 1.25 mg/kg/injection, schedule: Q01DX009 (ip), vehicle: Klucel (hydroxypropylcellulose) (HPC)): 152 % of control and 233 % of control
T/C (dose: 2.5 mg/kg/injection, schedule: Q01DX009 (ip), vehicle: Klucel (hydroxypropylcellulose) (HPC)): 221 % of control

O=C1/C(=C/c2ccc(Cl)cc2)SC(=S)N1C1CC1
T/C (dose: 6.25 mg/kg/injection, schedule: Q01DX005 (ip), vehicle: Klucel (hydroxypropylcellulose) (HPC)): 91 % of control
T/C (dose: 12.5 mg/kg/injection, schedule: Q01DX005 (ip), vehicle: Klucel (hydroxypropylcellulose) (HPC)): 96 % of control
T/C (dose: 25.0 mg/kg/injection, schedule: Q01DX005 (ip), vehicle: Klucel (hydroxypropylcellulose) (HPC)): 95 % of control
T/C [7]: 89 % of control

CC1(C)OP(=O)(O)C=C1Br
T/C (dose: 50.0 mg/kg/injection, schedule: Q01DX009 (ip), vehicle: saline): 103 % of control
T/C (dose: 100.0 mg/kg/injection, schedule: Q01DX009 (ip), vehicle: saline): 107 % of control
T/C (dose: 200.0 mg/kg/injection, schedule: Q01DX009 (ip), vehicle: saline): 93 % of control

O=C(Nc1ccc(Sc2ccc(N=Nc3c(O)c(S(=O)(=O)O)cc4cc(S(=O)(=O)O)ccc34)cc2)cc1)c1ccc(N=Nc2cc(S(=O)(=O)O)c3ccccc3c2O)cc1
T/C [14]: 98 % of control
T/C (dose: 100.0 mg/kg/injection, schedule: Q01DX005 (ip), vehicle: saline with Tween-80): 102 % of control
T/C (dose: 200.0 mg/kg/injection, schedule: Q01DX005 (ip), vehicle: saline with Tween-80): 98 % of control

Cc1cc(Oc2cnc(=O)[nH]c2)cs1
T/C (dose: 60.0 mg/kg/injection, schedule: Q01DX005 (ip), vehicle: Klucel (hydroxypropylcellulose) (HPC)): 100 % of control
T/C (dose: 120.0 mg/kg/injection, schedule: Q01DX005 (ip), vehicle: Klucel (hydroxypropylcellulose) (HPC)): 94 % of control
T/C (dose: 240.0 mg/kg/injection, schedule: Q01DX005 (ip), vehicle: Klucel (hydroxypropylcellulose) (HPC)): 94 % of control

c1ccc(-c2cnn3nnnc3n2)cc1
T/C [12]: 104 % of control
T/C [13]: 102 % of control
T/C (dose: 400.0 mg/kg/injection, schedule: Q01DX001 (ip), vehicle: saline): 101 % of control

O=C(O)CCCNS(=O)(=O)c1ccc(S(=O)(=O)NCCCC(=O)O)cc1
T/C [7]: 99 % of control
T/C [8]: 103 % of control
T/C [18]: 103 % of control

C[C@@H]1C[C@H](C)OC(CCl)O1 (some centres not stated)
T/C [15]: 100 % of control
T/C [16]: 102 % of control
T/C [17]: 98 % of control
